In data set [1] the test system is MCF-7 cells overexpressing ERα. Nature of the data set: Growth of MCF-7 cells transiently transfected with pcDNA3-ERα. It counts as cell-based, human. Conditions: 100 μM; one day; transfection efficiency approximately 40%. How it is done:
Anchorage-dependent growth assay: Cells were plated into 6-well plates and grown overnight before treatments. The seeding concentration of MCF-7 cells was 2×10^5/well, which was determined during preliminary experiments as not allowing the cells to reach confluency within 3 days. Cells were treated either with vehicle or ligands, as indicated. Cells were detached by incubation with trypsin (Invitrogen, Carlsbad, Calif.) and counted with a hemacytometer before or after treatment. Transfections and Reporter Gene Assay: Transient transfection was performed using FuGene6 (Roche, Indianapolis, Ind.) transfection reagent according to manufacturer's protocol. Circular reporter plasmid pERE-Tk-Luc at 10 μg and 10 μg of pCMV-β-Gal (as a measure of efficiency of trasnfection) were transfected with 50 μl of FuGene6. Cells were split into 6 well plates 12 hours after transfection, and incubated overnight in fresh medium. […] Luciferase and β-galactosidase activities were measured as described before (43, 44).

Data set [2] concerns Akt (Ser 473). Description: Akt phosphorylation in MCF-7 cells. Type of data set: cell-based, human. Conditions: not shown.
The subject of data set [3] is primary rat bone marrow cells. Nature of the data set: Thymidine incorporation assay. It counts as cell-based. Conditions: 24 hours, IB-MECA at 100 μM. How it is done:
Thymidine Incorporation Assay. Thymidine incorporation assays were performed as described (Zhang, Y., Wang, Z., and Ravid, K. The cell cycle in polyploid megakaryocytes is associated with reduced activity of cyclin B1-dependent cdc2 kinase. J Biol Chem, 271: 4266-4272, 1996) with modifications. Rat bone marrow cells were cultured in 25 cm^2 flasks at a concentration of 20×10^6 cells per 2 ml. After drug treatment for 24 hours, cells were incubated with ^3H-thymidine at a final concentration of 3 μCi/ml for 8 hours. For MCF-7 cells, cells were cultured in 6-well plates and incubated with ^3H-thymidine for 2 hours after drug treatment. Cells were divided into two portions, sixty percent of which were processed as described (Id.) to obtain tritium counts. The rest of the cells were lysed with Western blotting lysis buffer and protein concentrations were determined by Bio-Rad protein assay reagent (Bio-Rad, Hercules, Calif.). Tritium counts were normalized with corresponding protein concentrations to account for cell number variations.

For data set [4] the following is noted: in vivo application; Fishman et al. 2002; cited from earlier work.
Data set [5] relates to CMV promoter. Nature of the data set: Reporter gene assay pCMV-β-Gal in MCF-7 cells. It counts as cell-based, human. Conditions: MCF-7 transfected with pCMV-β-Gal; 12 hours. How it is done: Transfections and Reporter Gene Assay: Transient transfection was performed using FuGene6 (Roche, Indianapolis, Ind.) transfection reagent according to manufacturer's protocol. Circular reporter plasmid pERE-Tk-Luc at 10 μg and 10 μg of pCMV-β-Gal (as a measure of efficiency of trasnfection) were transfected with 50 μl of FuGene6. Cells were split into 6 well plates 12 hours after transfection, and incubated overnight in fresh medium. […] Luciferase and β-galactosidase activities were measured as described before (43, 44).
A general note: Reporter assays use an easily measured gene product as a stand-in for the process of interest.

The subject of data set [6] is Hs578T cells. Description: Apoptosis by propidium iodide staining and flow cytometry. It counts as cell-based, human. Conditions: 100 μM, two days. The protocol:
Flow Cytometry and Apoptosis Analysis: Cells were detached from tissue culture plates by trypsin treatment. Cells were collected by centrifugation at 1200 g for 5 minutes and washed once with PBS. Staining of cells with propidium iodide and analysis on a flow cytometer (FACScan, Becton Dickinson, Research Triangle Park, N.C.) was performed as described before (42). Data were analyzed with CellQuest software (Becton Dickinson, Research Triangle Park, N.C.). The percentage of cells appearing with a ploidy level smaller than a diploid content was calculated as an estimate of cells undergoing apoptosis.

Data set [7] relates to MCF-7+A3 cells (stably transfected with human A3AR cDNA). Nature of the data set: Soft agar assay with MCF-7 cells stably expressing A3 adenosine receptor. It counts as cell-based. Conditions: MCF-7+A3 pool vs MCF-7. The protocol:
Anchorage-independent growth (soft agar) assay: Soft agar assay was performed as described (40) with the following modifications. Ligands were added into the bottom and top agar before plating into 6-well plates. Cells were treated with trypsin (Invitrogen, Carlsbad, Calif.) for 5 minutes in a 37° C. incubator and pipetted several times so that most cells were in single cell forms. Cells were counted with a hemacytometer (Hausser Scientific/VWR, So. Plainfield, N.J.), and 10,000 cells were mixed with top agar and plated into each well. After the top agar had solidified, two ml of medium containing the same treatment was added on top of the agar. This covering medium was changed every two days during culture. After two weeks of culture, each well was counted for the number of colonies formed on an Olympus IX70 microscope under 40× optical amplification. A cell colony was defined as any cluster of cells that contain more than 3 cells. The average of counts from 3 random optical fields for each well was taken as the colony number and analyzed. Each treatment was performed in triplicates. The averages and standard deviations shown in the figures were calculated based on triplicate experiments. […] Clones of cells grown up were analyzed for their A3AR expression using RT-PCR.

Data set [8] has as its system cyclin levels in HeLa cells. Nature of the data set: Western blot of cyclins in HeLa cells. Type of data set: cell-based, human. Conditions: data not shown. How it is done:
Western Blot Analysis: Cells were washed three times in cold 1×PBS, and collected by scraping on ice. Western blot analysis was performed as we described before with the chemiluminescence method (41). Antibodies used in this study were: ERα (NeoMarkers, Ab-15), Cyclin A (Santa Cruz Biotech, H-432), Cyclin B1 (Santa Cruz Biotech, H-433), Cyclin E (Upstate Biotech, HE-12), p27 (Santa Cruz Biotech, F-8). ERα antibody was used at 1:100 dilutions. Cyclin A, cyclin B1 and p27 antibodies were used at 1:500 dilutions. Cyclin E antibody was used at 1:1000 dilutions.
For orientation: A western blot detects proteins with antibodies after separation by electrophoresis.

Data on one compound can be found in US20060100168A1, “Method of treating cancer using adenosine and its analogs” (The Trustee of Boston University, priority 2002, published 2006).

On to `CNC(=O)[C@H]1O[C@@H](n2cnc3c(NCc4cccc(I)c4)ncnc32)[C@H](O)[C@@H]1O` [IB-MECA, N^6-(3-iodobenzyl)adenosine-5′-N-methyluronamide], for which, in data set [1], the “Effect on growth of ERα-overexpressing cells” value is recorded as “moderate effect on growth”. Moreover, in data set [2], the “Akt phosphorylation (at Ser 473)” value was “induced Akt phosphorylation”. In data set [3], the “Thymidine incorporation reduced to” value was 68%. Moreover, the “Effect on blood cell counts” value in data set [4] was “no inhibitory effect”. Further, the CMV promoter activity entry in data set [5] is reported as “did not show any decrease in activity”. The “Apoptosis, in words” value in data set [6] is “substantial apoptosis”. Besides, the “Dosage response of colony formation compared to normal MCF-7 cells” value in data set [7] is “almost identical dosage response”. For the same compound, the Cyclin levels entry in data set [8] is recorded as “no significant change”.
